Earlier results in US20220079889A1, “USE OF CANNABANOIDS IN THE TREATMENT OF PROLIFERATIVE DIABETIC RETINOPATHY” (VERDANT PHARMACEUTICALS, LLC, priority 2020, published 2022).

details: typical value; cited from earlier work

Row | Molecule | time of persistence in the target neovasculature
1 | C=Cc1c(C)c2cc3nc(c(CC(=O)N[C@@H](CC(=O)O)C(=O)O)c4[nH]c(cc5nc(cc1[nH]2)C(C)=C5CC)c(C)c4C(=O)O)[C@@H](CCC(=O)O)[C@@H]3C [N-aspartyl chlorin e6] | about twenty
2 | CC(=O)[O-].CC(=O)[O-].CCc1c(CC)c2cc3nc(cnc4cc(OCCOCCOCCOC)c(OCCOCCOCCOC)cc4ncc4nc(cc1[n-]2)C(CCCO)=C4C)C(C)=C3CCCO.O.[Lu+3] [lutetium texaphyrin] | about twenty
3 | benzoporphyrin derivative [bcnzoporphyrin derivative] | about fifty
